# Earlier results as cited in patent US20120208745A1, “TREATMENT OF HIV” (priority 2006, published 2012).
# Where two headings read alike, the source gives them in different places.
# Tests used:
# IL-1 = settings: whole blood of HIV patients stimulated with LPS; concentration-dependent
# TNF-α [1] = settings: whole blood of HIV patients stimulated with LPS; concentration-dependent
# IL-1β = settings: normal PBMC, induced by HIV envelope glycoprotein gp 120
# TNF-α [2] = settings: normal PBMC, induced by HIV envelope glycoprotein gp 120
Substance,production of IL-1 (IL-1),production of TNF-α (TNF-α [1]),production of IL-1β (IL-1β),production of TNF-α (TNF-α [2])
"adrenocorticotropic hormone [ACTH (1-39)] (SYSMEHFRWGKPVGKKRRPVKVYPNGAEDESAEAFPLEF; Corticotropin; UniProt P01189 138-176, looked up) [Proopiomelanocortin-derived melanocortin peptide]",reduced,reduced,–,–
"α-melanocyte-stimulating hormone [α-MSH (1-13), α-melanocyte-stimulating hormone [α-MSH (1-13)]]",reduced,reduced,inhibit,inhibit
"ACTH (1-24): Melanocortin peptide, fragment 1-24 of adrenocorticotropic hormone (SYSMEHFRWGKPVGKKRRPVKVYP; Corticotropin; UniProt P01189 138-161, looked up, fragment)",reduced,reduced,–,–
